Results reported in paper PMC8611843 (BMC Cancer, 2021).
Where two headings read alike, the source gives them in different places.

Key:
[1] = Plasma ENT concentration and PK parameters (LC/MS/MS); format: in vivo, Japanese patients
Experimental: The PK parameters assessed after single and/or combination therapy included time at which maximum plasma concentration (Cmax) was observed (tmax), and the area under the plasma concentration-time curve from time 0–168 h (AUC0–168).

[2] = Electrocardiogram, change in QTc interval; format: in vivo, Japanese patients; conditions: patients tested
Experimental: (§1) The primary endpoint was safety. The severity of adverse events (AEs) was evaluated using National Cancer Institute Common Terminology Criteria for Adverse Events version 4.03 [21].

[3] = Phase 1 3 + 3 dose-escalation study: safety, DLTs and drug-related AEs (CTCAE v4.03); format: in vivo
Experimental: This study was based on a 3 + 3 dose-escalation design (Additional file 1). […] The duration of cycle 0 was 7 days and that of each cycle after cycle 1 was 28 days in principle. Treatment continued until progressive disease (PD) or discontinuation for other reasons (Additional file 1).
as §1
However, patients with nausea, vomiting, diarrhea, and hypophosphatemia were allowed to continue treatment without interruption by receiving the appropriate care.
AEs were summarized by System Organ Class and Preferred Term according to the Medical Dictionary for Regulatory Activities, version 20.1. The Kaplan-Meier method was used to estimate the median PFS (mPFS). PFS is defined as the duration of time from day 1 to the date of death or of PD, whichever came first. Patients who received subsequent therapy before confirmation of PD or in whom neither PD nor death was confirmed were censored at the last time point of non-PD confirmation. Clinical benefit rate (CBR) was defined as the percentage of patients achieving complete response (CR) or partial response (PR), or who maintained stable disease (SD) for more than 6 months.

[4] = once weekly; cited from earlier work
[5] = tested on: PBMCs derived from lung cancer patients; set-up: method as in PMID 28408401; conditions: cited from earlier work
[6] = tested on: Ac-K levels in CD19+ cells; assay: Protein lysine acetylation (Ac-K) levels in PBMCs; format: in vivo, Japanese patients; conditions: 24 h after first administration
Experimental: Ac-K levels in CD19+ cells, CD56+ CD16- cells, CD14+ monocytes, CD16+ cells, CD3+ T-cells, and CD45+ cells were measured using the previously reported methods, with a modification where antiacetylated lysine monoclonal antibody (BioLegend, San Diego, CA, USA; Clone 15G10, Cat. 623406) was used.

[7] = tested on: HLA-DR, CD69, ICOS on CD4+ and CD8+ T-cells; assay: T-cell activation markers on CD4+ and CD8+ T-cells in PBMCs; format: in vivo, Japanese patients; conditions: Cohorts 1–3
Experimental: Staining of CD3+ cells was performed using antibodies (all from BioLegend) against CD4 (Clone RPA-T4, Cat. 300512), CD8 (Clone SK-1, Cat. 344718), CD69 (Clone FN50, Cat. 310910), inducible T-cell costimulator (ICOS; Clone […], Cat. 313514), and human leukocyte antigen-DR (HLA-DR; Clone L243, Cat. 307630).

[8] = tested on: HR+/HER2− advanced or metastatic BC; set-up: method as in PMID 23650416; conditions: ENCORE 301, N = 130; cited from earlier work
[9] = tested on: HR+/HER2− advanced or metastatic BC; conditions: BOLERO-2, cited from earlier work
[10] = Cohort 1 N = 3, ENT 3 mg mono → EXE combo
[11] = Cohort 2 N = 3, ENT 5 mg mono → EXE combo
[12] = Cohort 3 N = 3, ENT 10 mg mono → EXE combo
[13] = Cohort 4 N = 3, ENT 5 mg + EXE combo
[14] = Total N = 12, as of data cut-off date

Nc1ccccc1NC(=O)c1ccc(CNC(=O)OCc2cccnc2)cc1 [ENT, Entinostat]
AUC0–168 dose dependency ([1]; ENT alone, 3, 5, 10 mg): increased linearly with dose | Steady state reached ([1]; all cohorts): cycle 1, day 15 | Tmax ([1]; human, plasma, oral administration, all cohorts): 28.8 to 85.2 min | Cmax dose dependency ([1]; intersubject variability high at 10 mg): increased in accordance with dose escalation between 3 mg and 5 mg | Effect on electrocardiograms [2]: no effect | Anemia, G2 (n patients, drug-related AE) [3, 10]: 1 | Back pain, G1 (n patients, drug-related AE) [3, 10]: 1 | Diarrhea, G2 (n patients, drug-related AE) [3, 10]: 1 | Hypoalbuminemia, G1 (n patients, drug-related AE) [3, 10]: 1 | Hypoalbuminemia, G2 (n patients, drug-related AE) [3, 10]: 1 | Neutrophil count decreased, G2 (n patients, drug-related AE) [3, 10]: 2 | Neutrophil count decreased, G3 (n patients, drug-related AE) [3, 10]: 1 | Platelet count decreased, G1 (n patients, drug-related AE) [3, 10]: 2 | Pneumonitis, G1 (n patients, drug-related AE) [3, 10]: 1 | Weight decreased, G2 (n patients, drug-related AE) [3, 10]: 1 | White blood cell count decreased, G1 (n patients, drug-related AE) [3, 10]: 1 | White blood cell count decreased, G2 (n patients, drug-related AE) [3, 10]: 1 | Anemia, G1 (n patients, drug-related AE) [3, 11]: 1 | Decreased appetite, G1 (n patients, drug-related AE) [3, 11]: 1 | Diarrhea, G1 (n patients, drug-related AE) [3, 11]: 1 | Fatigue, G1 (n patients, drug-related AE) [3, 11]: 1 | Gastritis, G1 (n patients, drug-related AE) [3, 11]: 1 | Headache, G1 (n patients, drug-related AE) [3, 11]: 1 | Hypoalbuminemia, G2 (n patients, drug-related AE) [3, 11]: 1 | Hypophosphatemia, G3 (n patients, drug-related AE) [3, 11]: 2 | Nausea, G1 (n patients, drug-related AE) [3, 11]: 2 | Neutrophil count decreased, G2 (n patients, drug-related AE) [3, 11]: 1 | Neutrophil count decreased, G3 (n patients, drug-related AE) [3, 11]: 1 | Platelet count decreased, G1 (n patients, drug-related AE) [3, 11]: 1 | Platelet count decreased, G3 (n patients, drug-related AE) [3, 11]: 1 | White blood cell count decreased, G2 (n patients, drug-related AE) [3, 11]: 1 | Anemia, G2 (n patients, drug-related AE) [3, 12]: 1 | Back pain, G1 (n patients, drug-related AE) [3, 12]: 1 | Decreased appetite, G1 (n patients, drug-related AE) [3, 12]: 1 | Fatigue, G1 (n patients, drug-related AE) [3, 12]: 1 | Headache, G1 (n patients, drug-related AE) [3, 12]: 1 | Hypoalbuminemia, G2 (n patients, drug-related AE) [3, 12]: 2 | Hypophosphatemia, G2 (n patients, drug-related AE) [3, 12]: 1 | Hypophosphatemia, G3 (n patients, drug-related AE) [3, 12]: 1 | Nausea, G1 (n patients, drug-related AE) [3, 12]: 2 | Neutrophil count decreased, G2 (n patients, drug-related AE) [3, 12]: 1 | Platelet count decreased, G1 (n patients, drug-related AE) [3, 12]: 1 | White blood cell count decreased, G2 (n patients, drug-related AE) [3, 12]: 1 | Anemia, G3 (n patients, drug-related AE) [3, 13]: 1 | Fatigue, G1 (n patients, drug-related AE) [3, 13]: 1 | Gastritis, G1 (n patients, drug-related AE) [3, 13]: 1 | Hypoalbuminemia, G1 (n patients, drug-related AE) [3, 13]: 1 | Hypoalbuminemia, G2 (n patients, drug-related AE) [3, 13]: 1 | Hypophosphatemia, G3 (n patients, drug-related AE) [3, 13]: 1 | Nausea, G1 (n patients, drug-related AE) [3, 13]: 2 | Neutrophil count decreased, G2 (n patients, drug-related AE) [3, 13]: 1 | Neutrophil count decreased, G3 (n patients, drug-related AE) [3, 13]: 1 | Platelet count decreased, G2 (n patients, drug-related AE) [3, 13]: 1 | Platelet count decreased, G3 (n patients, drug-related AE) [3, 13]: 1 | Pneumonitis, G1 (n patients, drug-related AE) [3, 13]: 1 | Weight decreased, G1 (n patients, drug-related AE) [3, 13]: 1 | White blood cell count decreased, G2 (n patients, drug-related AE) [3, 13]: 1 | Drug-related hypophosphatemia, grade 1 or 2 ([3]; DLT observation period): one patient in Cohorts 2, 3, and 4 | Drug-related nausea, grade 1 ([3]; DLT observation period): one patient in Cohort 3 and two patients in Cohort 4 | Drug-related platelet count decreased, grade 1 or 2 ([3]; DLT observation period): two patients in Cohort 4 | DLTs or grade 3–5 AEs ([3]; DLT observation period, ENT 3 mg or 5 mg once weekly or 10 mg single dose mono, ENT 5 mg weekly + EXE 25 mg/d): no DLTs or grade 3–5 AEs occurred | Anemia, G1 (n patients, drug-related AE) [3, 14]: 1 | Anemia, G2 (n patients, drug-related AE) [3, 14]: 2 | Anemia, G3 (n patients, drug-related AE) [3, 14]: 1 | Back pain, G1 (n patients, drug-related AE) [3, 14]: 2 | Decreased appetite, G1 (n patients, drug-related AE) [3, 14]: 2 | Diarrhea, G1 (n patients, drug-related AE) [3, 14]: 1 | Diarrhea, G2 (n patients, drug-related AE) [3, 14]: 1 | Fatigue, G1 (n patients, drug-related AE) [3, 14]: 3 | Gastritis, G1 (n patients, drug-related AE) [3, 14]: 2 | Headache, G1 (n patients, drug-related AE) [3, 14]: 2 | Hypoalbuminemia, G1 (n patients, drug-related AE) [3, 14]: 2 | Hypoalbuminemia, G2 (n patients, drug-related AE) [3, 14]: 5 | Hypophosphatemia, G2 (n patients, drug-related AE) [3, 14]: 1 | Hypophosphatemia, G3 (n patients, drug-related AE) [3, 14]: 4 | Nausea, G1 (n patients, drug-related AE) [3, 14]: 6 | Neutrophil count decreased, G2 (n patients, drug-related AE) [3, 14]: 5 | Neutrophil count decreased, G3 (n patients, drug-related AE) [3, 14]: 3 | Platelet count decreased, G1 (n patients, drug-related AE) [3, 14]: 4 | Platelet count decreased, G2 (n patients, drug-related AE) [3, 14]: 1 | Platelet count decreased, G3 (n patients, drug-related AE) [3, 14]: 2 | Pneumonitis, G1 (n patients, drug-related AE) [3, 14]: 2 | Weight decreased, G1 (n patients, drug-related AE) [3, 14]: 1 | Weight decreased, G2 (n patients, drug-related AE) [3, 14]: 1 | White blood cell count decreased, G1 (n patients, drug-related AE) [3, 14]: 1 | White blood cell count decreased, G2 (n patients, drug-related AE) [3, 14]: 4 | Study treatment interrupted because of grade 3 platelet count decreased ([3]; by data cut-off date): two patients | Study treatment interrupted owing to grade 3 neutrophil count decreased ([3]; by data cut-off date): Three patients | ENT dose reduction ([3]; during DLT observation period, all cohorts): not observed | ENT dose reduction from 5 mg to 3 mg owing to platelet count decreased and hypophosphatemia ([3]; in combination with EXE after DLT observation period): one patient in Cohort 2 and two patients in Cohort 4 | Serious AEs (SAEs) ([3]; start of study to cut-off date): one case each of abdominal pain (grade 2), pulmonary embolism (grade 3), maculopapular rash (grade 3), and femoral neck fracture (grade 3) | Maximum tolerated dose [4]: 4 mg/m^2 | T-cell activation markers such as CD69 [5]: increases | Increase of Ac-K levels in CD19+ cells vs prior to administration ([6]; Cohort 1 (ENT 3 mg)): about 1.5 fold | Increase of Ac-K levels in CD19+ cells vs prior to administration ([6]; Cohort 2 (ENT 5 mg)): ~1.9 fold | Increase of Ac-K levels in CD19+ cells vs prior to administration ([6]; Cohort 3 (ENT 10 mg)): ~2.7 fold | Expression of HLA-DR in CD4+ and CD8+ T-cells [7]: increased over time | Expression of CD69 ([7]; some patients, greater with SD ≥ 6 months): Increased expression

C=C1C[C@@H]2[C@H](CC[C@]3(C)C(=O)CC[C@@H]23)[C@@]2(C)C=CC(=O)C=C12 [EXE, exemestane]
Influence on the PK of ENT ([1]; ENT monotherapy vs ENT + EXE 25 mg/d): no influence | Median OS [8]: 19.84 months | Median PFS [8]: 2.3 months | mPFS ([9]; 35 Japanese patients): 4.21 months | mPFS ([9]; second-line or later hormonal therapy): 4.1 months
